Measured values from ChEMBL document CHEMBL3784969, “Pharmacokinetics of flutamide in patients with renal insufficiency” (Br J Clin Pharmacol, 1999).

Assay: Plasma protein binding in healthy geriatric volunteer by equilibrium dialysis method
Type: ADME, cell-free
Details: human, read-out: PPB

## CC(C)(O)C(=O)Nc1ccc([N+](=O)[O-])c(C(F)(F)F)c1 [HYDROXYFLUTAMIDE]
  fraction unbound: < 0.06
